Reference: patent publication US6159940A, “Method for modulating hemopoiesis” (Immunotech Developments Inc., priority 1999, dated 2000)
Where a SMILES comes first, the peptide text is derived from it.

Legend:
Thymoma EL-4 cells = Thymoma EL-4 cells incubated with peptide and oxyurea, transplanted to mice: tumor growth and survival; type: in vivo, C57B1 mice
Description: The Thymoma EL-4 cells were extracted from the abdomen cavity of C57B1 mice at the 7th day after transplantation. The suspension was washed by centrifugation in the medium RPMI. Then the cells were resuspended in the growth medium (RPMI+10% of embryo serum+0.1% penicillin/streptomycin) and were split in culture flasks 5 ml each ([…] per flask). 2 mg of the preparation were added (20 μl) to each probe. After 18 hours of incubation (37 degrees Celsius CO2), OU was added to the half of probes (1 mg per 5 ml). Incubation was done for 1 more hour in the same conditions and then cells were washed out by centrifugation in the medium RPMI. The precipitated cells were resuspended in calculation 1 ml per 0.2 ml of RPMI medium and then transplanted to the mice C57B1 under the back skin.
The taking of the measurements of the size of the tumor was started after the knot became visible. The tumor was measured every day until it was impossible to measure. The survival ability of the mice was examined during 60 days after transplantation. Mice that survived after this period were considered to be cured. Each experimental group consisted of 6 animals.

CFU-S-8 and CFU-S-12 = test: Cytostatic (Cytosine-Arabinoside)-induced cytopenia: karyocytes, CFU-S-8, CFU-S-12 in bone marrow; type: in vivo, mice; details: donor bone marrow; CA 20 mg/kg i.p. once; N 10 μg/kg once daily, three injections
Description: Used as a cytostatic, Cytosine-Arabinoside (CA) was intraperitoneally injected to donor mice once in the dose of 20 mg/kg. The peptide was given according to the following scheme: 10 μg/kg once daily, three injections starting from the first hour after CA. Intact mice received H-Ile-Glu-Trp-OH in the same doses and according to the same schedule. On day 8 after the cytostatic injection, determined were karyocyte count in the donor bone marrow and the content of hemopoietic progenitors of different polipotencies: committed CFU-S-8 and CFU-S-12. CFU-8 are committed stem cells which later undergo differentiation. CFU-12 are the polypotent cells, from which stem cells can be recruited (i.e. they maintain the pool of stem cells). This is a slowly proliferating cell population, mainly in G phase. That is why it is important to evaluate the effect of a preparation on the pools of both committed (CFU-8) and polypotent (CFU- 12) cells. To this end, bone marrow was extracted from donor's femoral bones and injected to lethally irradiated recipients. After the cell injections, every test group was divided into 2 subgroups: some animals were killed on day 8, the other on day 12. Spleens were taken out and the colonies were counted. The tests were carried out on 105 mice.

CFU-S = test: Spleen colony formation from RAMBS-treated bone marrow in lethally irradiated mice; type: in vivo, (CBA×C57BL)F1 female mice; details: RAMBS-treated bone marrow + preparation, lethally irradiated mice
Description: (CBA×C57BL)F1 female mice (n=2500), 2-months old, weighing about 20 g, were used in the experiment.
As is known, there is a close relationship between T-cells and hemopoietic progenitors. It was shown that, along with colony-forming units of spleen (CFU-S), thymocytes participate in colony formation of spleens of irradiated mice by controlling proliferation of the hemopoietic progenitor cells. The fact was established in a test system, which allowed a selective removal of accessory T-cells from bone marrow with the help of rabbit antimouse brain antiserum (RAMBS) and their substitution with other factors. Aliquots (0.1 ml) of bone marrow suspension (2×10^7 cells), RAMBS, and medium 199 were mixed and incubated for 1 hour at 37° C. Then the cells were washed with centrifuging, resuspended and injected to lethally irradiated mice.
According to the aforesaid scheme, instead of thymocytes mice received the peptide, H-Ile-Glu-Trp-OH injections 30 minutes before the injections of RAMBS-treated bone marrow suspension.

[1] = 60 days after transplantation of treated EL-4 cells

NC(=O)NO [OU, oxyurea, reference compound]
% of Survival (Thymoma EL-4 cells; [1]): 0% | Number of Survived Mice From 6 (Thymoma EL-4 cells; [1]): 0/6 | delay in the tumor growth (Thymoma EL-4 cells; intact tumor cells treated with OU (FIG. 3)): ~12 days | increase in lifetime versus control (Thymoma EL-4 cells; mice with Thymoma EL-4): 5 days

Nc1ccn([C@@H]2O[C@H](CO)[C@@H](O)[C@@H]2O)c(=O)n1 [CA, Cytosine-Arabinoside, reference compound]
Day 8 COUNT CFU-S-8 (CFU-S-8 and CFU-S-12): 1270 ± 53 | Day 8 COUNT CFU-S-12 (CFU-S-8 and CFU-S-12): 1244 ± 71 | Day 8 COUNT Karyocytes (CFU-S-8 and CFU-S-12): 17.5 ± 0.8 × 10^6

N[C@@H](CCC(=O)O)C(=O)N[C@@H](Cc1c[nH]c2ccccc12)C(=O)O [Thymogen, H-Glu-Trp-OH, reference compound] (H-Glu-Trp-OH)
Average Colony Count (CFU-S): 2.9+/-0.3
